Measured values from patent publication EP0089901A1, “New 2-oxo-1-pyrrolidineacetic acid esters, their methods of production and therapeutic compositions containing the same” (PRODES S.A., priority 1982, dated 1983).

Columns and labels:
animals [1] = test: Unspecific protection against lethality: anoxia by CNK, survival time; assay type: in vivo; conditions: survival time after CNK
[2] = LD50 of representative compounds; conditions: in vivo
Excerpt: LD50 of representative compounds included in Table III.

mouse = test: Unspecific protection against lethality: gasping time after quick decapitation; assay type: in vivo; conditions: gasping time after decapitation of mouse
Excerpt: The second trial is the quick decapitation of mouse. The head has a typical mandibular movement, known as gasping, as searching the breathing air.

anesthetized dogs = test: Electromagnetic blood flow measurement (vertebral/cerebral blood flow); assay type: in vivo; conditions: vertebral blood flow
Experimental: After orotraqueal intubation, artificial respiration with normal air was instituted using a Manley Pulmovent respirator. The correct ventilation of the dogs was checked after all the surgical procedures by determining the p02, pC02, and pH in arterial blood samples, as well as several times during the experiment by means of an Astrup apparatus. Blood pressure was measured in left saphenous artery by means of a Bell & Howell pressure transducer, and the heart rate by means of a Beckman ECG device. Recordings were made on an ink-writing Beckman polygraph. Left saphenous vein and right saphenous artery were cannulated with polyethylene catheters for drug administration and blood collection respectively.
Vertebral blood flow was measured by a non-cannulating electro-magnetic flowmeter (Carolina Medical Electronics) placed in the vertebral artery.
The Carolina digital flowmeter was connected to an Omniscribe Houston Instruments plotter.
Piracetam and nicotinic acid were used as control drugs.

animals [3] = test: Unspecific protection against lethality: hypoxia-hypobara (decompression), survival time; assay type: in vivo; conditions: survival time under decompression
Excerpt: We have chosen the hypoxia-hypobara : the decompression kills the animals, because of the lack of 02.

## CC1CC(OC(=O)CN2CCCC2=O)CC(C)(C)C1 (mixture of isomers) [cis/trans 3,3,5-trimethylcyclohexyl 2-oxo-l-pyrrolidineacetate]
Animals [1]; DOSE 500mg/kg
  ANOXIA BY CNK: Very active
[2]
  LD50: 3170 mg/kg
mouse; DOSE 500mg/kg
  GASPING: Very active
Anesthetized dogs; DOSE 1 mg/kg
  EFFECT: Active
Animals [3]; DOSE 500mg/kg
  HYPOXIA HYPOBARA: Active

## O=C1NC(=O)C(c2ccccc2)(c2ccccc2)N1 [Difenilhydantoine, reference compound]
Animals [1]; DOSE 100mg/kg
  ANOXIA BY CNK: Active
mouse; DOSE 100mg/kg
  GASPING: Very active
Animals [3]; DOSE 100mg/kg
  HYPOXIA HYPOBARA: Active

## O=C(O)c1cccnc1 [Nicotinic acid]
Anesthetized dogs; no dose given
  EFFECT: No effect

## COc1ccc(Cc2nccc3cc(OC)c(OC)cc23)cc1OC [Papaverine]
Anesthetized dogs; DOSE 0.5 mg/kg
  EFFECT: Active

## NC(=O)CN1CCCC1=O [Piracetam, 2-oxo-1-pyrrolidineacetamide, reference compound]
Animals [1]; DOSE 1000mg/kg
  ANOXIA BY CNK: No effect
mouse; DOSE 1000mg/kg
  GASPING: No effect
Anesthetized dogs; no dose given
  EFFECT: No effect
Animals [3]; DOSE 1000mg/kg
  HYPOXIA HYPOBARA: No effect

## CCC(C(=O)OC1CC(C)CC(C)(C)C1)N1CCCC1=O (stereo not drawn) [cis 3,3,5-trimethylcyclohexyl 2-(2-oxo-l-pyrrolidinyl)butyrate]
Animals [1]; DOSE 500mg/kg
  ANOXIA BY CNK: Very active
[2]
  LD50: 2850 mg/kg
mouse; DOSE 500mg/kg
  GASPING: Very active
Anesthetized dogs; DOSE 0.5 mg/kg
  EFFECT: Active
Animals [3]; DOSE 500mg/kg
  HYPOXIA HYPOBARA: Active
